In PubChem BioAssay AID1626 (SRMLSC, 2009) one finds IC50, IC90 and CC50 data, which are given here for 65 compounds.

The subject of this assay is M. tuberculosis H37Rv growth inhibition. The assay can be described thus: M. tuberculosis H37Rv growth inhibitors, H37Rv strain (AID 1626). The settings on record: for IC90: measured here: IC90 against H37Rv; for CC50: measured here: Vero cell cytotoxicity.

Regarding `O=[N+]([O-])c1cccn2cc(-c3ccc(Br)cc3)nc12`, the IC50 is 18.8 µM, the IC90 was over 100 µM and the CC50 was found to be 27.1 µM.

For the compound `Cc1cccc(NC(=O)c2nc[nH]c2C(=O)N[C@@H](CC(C)C)C(=O)OCc2ccccc2)c1`, the IC50 was 23 µM, the IC90 was over 100 µM and the CC50 worked out at 39.1 µM.

Turning to `Nc1ncnc(Oc2cccc3cccnc23)c1[N+](=O)[O-]`, the IC50 was 6.19 µM, the IC90 turned out to be 6.94 µM and the CC50 was determined as 37.1 µM.

With `CC(NC(=O)Nc1ccc(Br)cc1)C(C)(C)C` (centres undefined), the IC50 is 0.42 µM and the IC90 was over 100 µM.

`Cc1ccc(NC(=O)COC(=O)CC2CCCC2)cc1Cl` returned an IC90 of over 100 µM.

`CC/C(=C(\c1ccc(O)cc1)c1ccc(OCCN(C)C)cc1)c1ccccc1`: the 50% inhibitory concentration (IC50) is 8.76 µM, the IC90 was 12.3 µM and the cytotoxic concentration (CC50) was found to be 14.1 µM.

For the compound `COCCN=C1Sc2nc3ccc(C)cc3cc2CN1Cc1cccs1`, the IC50 was 10.6 µM and the IC90 turned out to be 13.8 µM.

Turning to `COc1cccc(-c2csc(N3CCN(C(=O)NC45CC6CC(CC(C6)C4)C5)CC3)n2)c1`, the IC50 was 1.09 µM, the IC90 was 1.92 µM and the CC50 was over 40 µM.

On to `O=C(COC(=O)c1c2c(nc3ccccc13)/C(=C/c1cccc([N+](=O)[O-])c1)CCC2)NC1CCS(=O)(=O)C1` (centres undefined), for which the IC50 is 6.99 µM, the IC90 is over 100 µM and the CC50 was found to be 34 µM.

For the compound `Cc1ccc(N2C(=O)C(F)(F)C2c2ccccc2)cc1` (centres undefined), the IC50 is 4.38 µM and the IC90 amounted to 19.7 µM.

For `c1ccc(-c2nnc(SCc3nnc(-c4cccs4)o3)o2)cc1`, the half-inhibitory concentration (IC50) was 6.34 µM and the IC90 turned out to be 11.6 µM.

As for `Cc1nc(N/C(N)=N/S(=O)(=O)c2ccc([N+](=O)[O-])cc2)nc2ccccc12`, the IC50 was 9.12 µM, the IC90 was over 100 µM and the CC50 is over 40 µM.

In turn, `O=C(COc1ccc2c(c1)OCO2)Nc1ccc2c(c1)oc1ccccc12` showed an IC90 of over 100 µM and a CC50 of over 40 µM.

In the case of `O=C(NC1CCCCCCC1)c1ccccc1-c1ccccc1`, the IC50 was 57.1 µM and the IC90 is over 100 µM.

Take `Cc1occc1-c1nnc(SCC(=O)NCCc2ccccc2)o1`: the IC50 was 15 µM and the IC90 is over 100 µM.

In the case of `CC1CC(C)CN(C(=O)c2ccc(CNc3c(N4CCCC4)c(=O)c3=O)cc2)C1` (centres undefined), the IC50 was 1.46 µM and the IC90 came to 1.64 µM.

As to `Nc1nc(-c2ccccn2)nc(N)c1Cc1c(F)cccc1Cl`, the 50% inhibitory concentration (IC50) is under 0.391 µM, the IC90 was 0.451 µM and the CC50 is 4.76 µM.

With `COc1cccc(-c2cc(C(=O)Nc3nc4ccccc4s3)c3ccccc3n2)c1`, the IC50 was 8.12 µM, the IC90 is over 100 µM and the CC50 was over 40 µM.

As for `O=C(OCc1cccc2ccccc12)c1ccc2c(=O)[nH]c(CN3CCOCC3)nc2c1`, the IC50 was 0.478 µM, the IC90 is over 100 µM and the CC50 is over 40 µM.

Turning to `COc1cccc(NC(=O)c2cc(-c3ccncc3)nc3c(C)cc(C)cc23)c1`, the IC50 is 10.9 µM, the IC90 stood at 18.5 µM and the CC50 was over 40 µM.

`CCc1ccc(NC(=O)CSc2nnc(-c3ccccn3)n2C)cc1`: the IC90 is over 100 µM.

`Cn1cc(CN2CCN(c3ccc(Cl)cn3)CC2)c(-c2ccccc2F)n1` returned an IC90 of over 100 µM.

For the compound `COc1ccc2nc(N=Nc3ccc(O)c4ccccc34)sc2c1`, the IC50 was 5.17 µM, the IC90 stood at 10.1 µM and the CC50 amounted to 4.6 µM.

For `CCOC(=O)CSc1ccc(-c2nc3cc(C)c(C)cc3[nH]2)cn1`, the IC50 is 1.09 µM and the IC90 was determined as 2.24 µM.

For `OC(CNCc1ccco1)Cn1c2ccc(Br)cc2c2cc(Br)ccc21` (centres undefined), the IC50 is 2.76 µM, the IC90 turned out to be 3.11 µM and the CC50 was determined as 17.2 µM.

Take `CC1CCN(c2ccc(C=O)o2)CC1`: the IC50 was 55.9 µM and the IC90 is over 100 µM.

Regarding `CCC(CC)c1nnc(NC(=O)c2ccc3ccccc3n2)s1`, the IC50 is 0.814 µM, the IC90 was determined as 1.48 µM and the half-maximal cytotoxic concentration (CC50) turned out to be 35.7 µM.

With `CC(C)(C)n1c(O)c(C=Nc2ccc3c(c2)CCC3)c(=O)[nH]c1=O`, the IC50 is 37.8 µM, the IC90 was over 100 µM and the CC50 was over 40 µM.

Take `CCOC(=O)C(Nc1ccc2ccccc2c1)C(=O)OCC`: the IC50 is 1.04 µM, the IC90 worked out at 2.86 µM and the CC50 was over 40 µM.

Consider `Cc1ccc(C(O)(c2ccccc2)c2ccccc2C(C)N(C)C)c(C)c1` (centres undefined), for which the IC50 is 11.7 µM, the IC90 is 19.9 µM and the CC50 was 39 µM.

Consider `COC(=O)CSc1nc(N)c2c3c(sc2n1)CCCC3`, for which the IC50 is 2.54 µM and the IC90 turned out to be 4.12 µM.

Consider `Oc1ccc(COCc2ccccc2)c2cccnc12`, for which the IC50 was 3 µM, the IC90 amounted to 3.31 µM and the CC50 amounted to 1.6 µM.

With `Cc1coc2c1C(=O)C(=O)c1c-2ccc2c1CCCC2(C)C`, the IC50 is 3.23 µM and the concentration for an effect of 90% (IC90) was determined as 4.85 µM.

In the case of `Cc1sc2nc(-c3ccccn3)[nH]c(=O)c2c1-c1ccccc1`, the IC50 was 0.69 µM, the IC90 was 1.69 µM and the CC50 worked out at 15.2 µM.

As to `COc1ccc(C[C@H]2CN3C(=NC[C@@H]3Cc3ccc(O)cc3)N2C[C@H](C)NC(=O)c2ccc(C)c(Br)c2)cc1`, the IC50 is 6.33 µM and the IC90 was determined as 9.21 µM.

`CCCN(CC1CC1)C(=O)COC(=O)c1ccc2c(c1)C(=O)N(c1ccc(OCC)cc1)C2=O` registered an IC90 of over 100 µM.

In the case of `C[n+]1c2n(c3ccccc31)N=C(c1cc(C(C)(C)C)c(O)c(C(C)(C)C)c1)CS2`, the IC50 is 2.54 µM, the IC90 amounted to 3.14 µM and the CC50 is over 40 µM.

On to `c1ccc(N2CCN(c3nc(-c4ccccn4)nc4ccccc34)CC2)cc1`, for which the IC50 was 0.924 µM, the IC90 was determined as 1.62 µM and the 50% cytotoxic concentration (CC50) was 25.9 µM.

On to `Cc1ccc2nc(-c3cccc(N)c3)oc2c1`, for which the IC50 is 12.7 µM, the IC90 is over 100 µM and the CC50 was over 40 µM.

As to `Cc1cc(C)c(N=Cc2c(O)n(-c3nccs3)c(=O)c3ccccc23)c(C)c1`, the 50% inhibitory concentration (IC50) is 13.1 µM and the IC90 was found to be 71.4 µM.

Turning to `COc1ccccc1-c1nnc(NC(=O)C2=COCCO2)o1`, the IC50 was 8.99 µM, the IC90 was found to be 15.5 µM and the CC50 is over 40 µM.

On to `CCOC(=O)Oc1ccc2oc(C)c(C(=O)OCCOC)c2c1`, for which the 50% inhibitory concentration (IC50) is 26.1 µM and the IC90 was over 100 µM.

Take `CCOC(=O)c1cnc(-n2nc(C)cc2C)nc1NCc1ccc2c(c1)OCO2`: the IC50 is 4.62 µM, the IC90 was over 100 µM and the CC50 is over 40 µM.

As to `O=C(CN1CCN(CC(=O)Nc2ccc(OCc3ccccc3)cc2)CC1)Nc1ccc(F)cc1`, the IC50 is 34.5 µM and the IC90 was over 100 µM.

Regarding `Cc1nn2c(NCCCn3ccnc3)cc(C(C)C)nc2c1-c1ccccc1`, the IC50 was 7.66 µM, the IC90 worked out at 11.9 µM and the CC50 came out at 26.4 µM.

For the compound `CCOc1ccc(CN(C)C(=O)CCl)cc1`, the IC50 was 26.7 µM, the IC90 is over 100 µM and the CC50 turned out to be 12.7 µM.

With `CCOC(=O)N1CCN(CCC(=O)Nc2ccc(C)c(Br)c2)CC1`, the IC50 was 6.69 µM and the IC90 is 26.2 µM.

As to `Cc1ccc(NC(=O)c2ccc([N+](=O)[O-])o2)c(C)c1`, the IC50 is 6.59 µM, the IC90 stood at 11.2 µM and the CC50 was found to be 13.4 µM.

Consider `Cc1c(C(=O)Nc2nc3ccccc3[nH]2)oc2ccccc12`, for which the IC50 is 1.29 µM, the IC90 was 4.5 µM and the CC50 was over 40 µM.

Regarding `O=C(O)C1CCCCC1C(=O)Nc1ccccc1Nc1ccccc1` (centres undefined), the IC90 was over 100 µM.

For the compound `C=CCn1c(SCc2csc(-c3ccc(C)cc3)n2)nnc1-c1ccccc1OC`, the IC50 was 16.5 µM, the IC90 came out at 23.8 µM and the CC50 was over 40 µM.

`O=C(Nc1nccs1)c1cc2c(s1)CCCCC2`: the IC50 is 5.64 µM, the IC90 is 25 µM and the CC50 was over 40 µM.

As for `CC(=O)c1c(C)n(C)c2ccc(O)cc12`, the IC90 was over 100 µM.

For the compound `CCCCCOc1ccc(C(=O)NCC(=O)NCC(=O)OCC)cc1`, the IC50 was 5.74 µM, the IC90 was found to be 6.53 µM and the 50% cytotoxic concentration (CC50) was over 40 µM.

`CCCCCCCCSc1nnc(CSc2nc3nc(C)cc(C)n3n2)o1`: the IC50 is 0.635 µM and the IC90 worked out at 24.6 µM.

As for `COc1ccc(C(=O)Nc2cc(OC)c(NC(=O)c3ccco3)cc2OC)cc1`, the IC50 was 2.85 µM and the IC90 stood at 9.59 µM.

`O=C(CCCC(=O)OCC(=O)c1cccs1)Nc1ccc(Oc2ccccc2)cc1`: the IC50 is 17.4 µM and the IC90 was over 100 µM.

As to `Cc1cc([N+](=O)[O-])ccc1NC(=O)c1ccc(NC(=O)C(C)C)cc1`, the IC50 is 12.3 µM and the IC90 is over 100 µM.

As to `O=C(CCSc1nnc(-c2ccccc2)o1)N1CCOCC1`, the IC50 was 13 µM and the IC90 was 18 µM.

Consider `CCCCOC(=O)c1ccc(NC(=O)C(=O)NCCN(C)C)cc1`, for which the IC50 was 14.9 µM and the IC90 was over 100 µM.

Take `COc1cc(/C=C2\COC/C(=C\c3ccc(O)c(OC)c3)C2=O)ccc1O`: the IC50 is 5.7 µM, the IC90 was 10.8 µM and the CC50 is 21.8 µM.

On to `O=C(C[n+]1cnn(CC(=O)c2ccc(Cl)cc2Cl)c1)c1ccc([N+](=O)[O-])cc1`, for which the IC50 is 20.3 µM and the IC90 was 36.8 µM.

Consider `CC1(C)Cc2c(C#N)c(N3CCN(C(=O)c4ccccc4)CC3)nc(Cc3ccccc3)c2CO1`, for which the IC50 is 10.5 µM, the IC90 stood at 18.7 µM and the CC50 is over 40 µM.

Consider `CCS(=O)(=O)Nc1cccc(-c2cc(-c3ccccc3)c3cc(C)ccc3n2)c1`, for which the IC50 is 5.97 µM, the IC90 came out at 11.1 µM and the CC50 was over 40 µM.

For the compound `CC(C)c1ccc2nc(N)sc2c1`, the IC50 is 43.3 µM, the IC90 was over 100 µM and the CC50 was over 40 µM.
